The values below come from PubChem BioAssay (NCI).

Structures are written as SMILES.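 Method: 48-hour compound exposure of cells in 96-well plates, five concentrations, linear interpolation of endpoints. TGI marks complete inhibition of growth.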

Test systems include HOP-92 NSCLC; EKVX NSCLC; NCI-H23 lung; LOX IMVI melanoma; NCI-H522 lung; SNB-75 CNS; HCT-15 colon; 786-0 renal; HS 578T breast; OVCAR-5 ovarian; SK-MEL-28 melanoma; A498 renal.
Holding throughout (assay): NCI-60 cell line screen, 48 h

Take `COc1cc(/C=C/C(=O)OC[C@]23O[C@H]2[C@@H](OC2OC(C)C(O)C(O)C2O)C2C=CO[C@@H](OC4OC(CO)C(O)C(O)C4O)C23)ccc1O` (stereo partly drawn): the TGI with HOP-92 NSCLC, in the experiment with EKVX NSCLC, in the experiment on NCI-H23 lung, in the experiment with LOX IMVI melanoma, in the experiment on NCI-H522 lung and in the experiment with SNB-75 CNS was over 100 µM in each case. The TGI in the experiment with HCT-15 colon, with 786-0 renal, in the experiment with HS 578T breast, in the experiment on OVCAR-5 ovarian and in the experiment with SK-MEL-28 melanoma was over 100 µM each time.
Consider `COc1ccc(/C=N/N=C(N)N)c(C(=O)O)c1OC`, for which the TGI in the experiment on EKVX NSCLC, in the experiment on NCI-H23 lung, with NCI-H522 lung, in the experiment on SNB-75 CNS, with HCT-15 colon and in the experiment on A498 renal was over 100 µM each time. The molecule also displayed a TGI in the experiment on SK-MEL-28 melanoma of over 100 µM.
For the molecule `CN(C)CCNc1ccccn1`, the TGI in the experiment with HOP-92 NSCLC, with EKVX NSCLC, with NCI-H23 lung, with LOX IMVI melanoma, with NCI-H522 lung and in the experiment on HCT-15 colon was over 100 µM in each case. In addition, the TGI in the experiment on 786-0 renal, with A498 renal, in the experiment on HS 578T breast, with OVCAR-5 ovarian and in the experiment with SK-MEL-28 melanoma was over 100 µM each time.
As for `O=C1OS2(OC(=O)c3cccc4cccc2c34)c2ccccc21` (stereo not drawn), the TGI with HOP-92 NSCLC, in the experiment on EKVX NSCLC, in the experiment on NCI-H23 lung, in the experiment with LOX IMVI melanoma, in the experiment on NCI-H522 lung and in the experiment with HCT-15 colon was over 100 µM each time. Moreover, the TGI in the experiment with 786-0 renal, with A498 renal, in the experiment with HS 578T breast, in the experiment on OVCAR-5 ovarian and with SK-MEL-28 melanoma was over 100 µM each time.
`CC(C)OCC(O)COc1cc(=O)oc2ccccc12` (stereo not drawn): the TGI in the experiment on HOP-92 NSCLC, with EKVX NSCLC, in the experiment with NCI-H23 lung, in the experiment on LOX IMVI melanoma, in the experiment on NCI-H522 lung and with HCT-15 colon was over 100 µM each time. For the same molecule, the TGI with 786-0 renal, in the experiment with HS 578T breast, with OVCAR-5 ovarian and in the experiment on SK-MEL-28 melanoma was over 100 µM in each case.
For the molecule `CC1(C)OC2C(CO)OC(/N=C(\NC#N)Oc3ccccc3)C2O1` (stereo not drawn), the TGI in the experiment on EKVX NSCLC, in the experiment on NCI-H23 lung, in the experiment on LOX IMVI melanoma, in the experiment with SNB-75 CNS, in the experiment with HCT-15 colon and in the experiment on OVCAR-5 ovarian was over 100 µM each time. The TGI with SK-MEL-28 melanoma was over 100 µM.
For the molecule `O=C1CCCn2c3ccccc3c3ccnc1c32`, the TGI was over 100 µM with HOP-92 NSCLC; over 85.2 µM with EKVX NSCLC; over 100 µM in the experiment on NCI-H23 lung; over 100 µM in the experiment on LOX IMVI melanoma; over 100 µM in the experiment on NCI-H522 lung; over 100 µM in the experiment on SNB-75 CNS. In addition, the TGI was over 100 µM with HCT-15 colon, 32.2 µM in the experiment on A498 renal, over 100 µM in the experiment with OVCAR-5 ovarian and over 100 µM in the experiment on SK-MEL-28 melanoma.
For the molecule `O=c1[nH]c(=O)n(COCCO)cc1-c1ccccc1`, the TGI in the experiment with HOP-92 NSCLC, in the experiment on EKVX NSCLC, in the experiment with NCI-H23 lung, in the experiment with LOX IMVI melanoma, with NCI-H522 lung and in the experiment with HCT-15 colon was over 100 µM in each case. For the same molecule, the TGI in the experiment on 786-0 renal, in the experiment with HS 578T breast, in the experiment with OVCAR-5 ovarian and in the experiment with SK-MEL-28 melanoma was over 100 µM in each case.
Consider `O=C1NC(N2CCOCC2)=N/C1=C\c1ccccc1`, for which the TGI in the experiment on HOP-92 NSCLC, with EKVX NSCLC, with NCI-H23 lung, with LOX IMVI melanoma, with NCI-H522 lung and in the experiment on SNB-75 CNS was over 100 µM throughout. Moreover, the TGI in the experiment on HCT-15 colon, with 786-0 renal, with HS 578T breast, in the experiment with OVCAR-5 ovarian and with SK-MEL-28 melanoma was over 100 µM throughout.
Consider `COC(CO[Si](C)(C)N[Si](C)(C)OCC(OC)c1ccccc1)c1ccccc1` (stereo not drawn), for which the TGI with HOP-92 NSCLC, in the experiment on EKVX NSCLC, with NCI-H23 lung, with LOX IMVI melanoma, in the experiment on SNB-75 CNS and with HCT-15 colon was over 100 µM each time. Also, the TGI with 786-0 renal, in the experiment with A498 renal, with OVCAR-5 ovarian and in the experiment on SK-MEL-28 melanoma was over 100 µM in each case.
Turning to `CO/C=C(/C(=O)OC)c1ccccc1[C@H]1C[C@@H]1c1ccc(OC)cc1`, the TGI in the experiment on HOP-92 NSCLC is over 100 µM; with EKVX NSCLC, 50.2 µM; with NCI-H23 lung, over 100 µM; in the experiment on NCI-H522 lung it was 25.5 µM; in the experiment on HCT-15 colon it was 66.1 µM; in the experiment with 786-0 renal, over 100 µM. For the same molecule, the TGI is over 100 µM in the experiment with A498 renal, 84.5 µM in the experiment on HS 578T breast, over 100 µM with OVCAR-5 ovarian and 52.2 µM with SK-MEL-28 melanoma.
With `CCOC(=O)Cn1c(=O)c2cc(C)cc3c(Cl)nc4c(OC)c(OC)cc1c4c32`, the TGI in the experiment with HOP-92 NSCLC, in the experiment on EKVX NSCLC, in the experiment on NCI-H23 lung, in the experiment on LOX IMVI melanoma, in the experiment with NCI-H522 lung and in the experiment with SNB-75 CNS was over 100 µM throughout. The TGI in the experiment on HCT-15 colon was over 100 µM; in the experiment on 786-0 renal, over 100 µM; in the experiment on HS 578T breast it was 74.7 µM; in the experiment on OVCAR-5 ovarian it was over 100 µM; with SK-MEL-28 melanoma it was over 100 µM.
Take `CS(=O)(=O)c1nc(-c2cc3c(c(S(C)(=O)=O)n2)CCC3)cc2c1CCC2`: the TGI with EKVX NSCLC is over 100 µM; in the experiment with NCI-H23 lung, over 100 µM; in the experiment on LOX IMVI melanoma it was over 100 µM; with NCI-H522 lung, over 100 µM; with SNB-75 CNS, 53.4 µM; in the experiment on HCT-15 colon it was over 100 µM. The TGI with 786-0 renal, in the experiment on A498 renal, in the experiment with OVCAR-5 ovarian and in the experiment on SK-MEL-28 melanoma was over 100 µM in each case.
For `COC12OC3(C4OC41)C(C(=O)O[C@H]3CO[Si](C)(C)C(C)(C)C)C2S(=O)(=O)c1ccccc1` (stereo partly drawn), the TGI is over 100 µM in the experiment with HOP-92 NSCLC; over 5.18 µM in the experiment with EKVX NSCLC; over 100 µM in the experiment with NCI-H23 lung; 50.4 µM in the experiment on NCI-H522 lung; over 100 µM in the experiment on HCT-15 colon; over 7.71 µM in the experiment with 786-0 renal. Besides, the TGI is over 100 µM in the experiment on HS 578T breast, over 12.2 µM in the experiment with OVCAR-5 ovarian and over 5.53 µM in the experiment with SK-MEL-28 melanoma.
